From patent publication US20130209543A1, “ENHANCED TREATMENT REGIMENS USING MTOR INHIBITORS” (Intellikine LLC, priority 2011, published 2013)
pIC50: −log10 of the molar value. Read-outs that look alike come from different tables or passages of the source.

Tests used:
Assay type in all cases: biochemical
mTOR = molecular target: T1, mTOR (Homo sapiens, UniProt P42345); test: mTOR kinase inhibition assay
T1 construct: purchased Invitrogen
Protocol: The compounds described herein and any other mTorC1/mTorC2 inhibitors known in the art can be tested against recombinant mTOR (Invitrogen) in an assay containing 50 mM HEPES, pH 7.5, 1 mM EGTA, 10 mM MgCl2, 2.5 mM, 0.01% Tween, 10 μM ATP (2.5 μCi of μ-32P-ATP), and 3 mg/mL BSA. Rat recombinant PHAS-1/4EBP1 (Calbiochem; 2 mg/mL) is used as a substrate. Reactions are terminated by spotting onto nitrocellulose, which is washed with 1M NaCl/1% phosphoric acid (approximately 6 times, 5-10 minutes each). Sheets are dried and the transferred radioactivity quantitated by phosphorimaging.
For instance, one can use Invitrogen's LanthaScreen™ Kinase assay to test the inhibitors of mTOR disclosed herein. This assay is a time resolved FRET platform that measures the phosphorylation of GFP labeled 4EBP1 by mTOR kinase. The kinase reaction is performed in a white 384 well microtitre plate. The total reaction volume is 20 μl per well and the reaction buffer composition is 50 mM HEPES pH7.5, 0.01% Polysorbate 20, 1 mM EGTA, 10 mM MnCl2, and 2 mM DTT. In the first step, each well receives 2 ul of test compound in 20% dimethylsulphoxide resulting in a 2% DMSO final concentration. Next, 8ul of mTOR diluted in reaction buffer is added per well for a 60 ng/ml final concentration. To start the reaction, 10 ul of an ATP/GFP-4EBP1 mixture (diluted in reaction buffer) is added per well for a final concentration of 10 μM ATP and 0.5 μM GFP-4EBP1. The plate is sealed and incubated for 1 hour at room temperature. […] The plate is sealed, incubated for 1 hour at room temperature, and then read on a plate reader set up for LanthaScreen™ TR-FRET. Data is analyzed and IC50s are generated using GraphPad Prism 5.

PI3K δ = PI3K δ (Homo sapiens, UniProt O00329); test: PI3K δ kinase assay
Chain of PI3K δ (O00329 whole entry, species assumed): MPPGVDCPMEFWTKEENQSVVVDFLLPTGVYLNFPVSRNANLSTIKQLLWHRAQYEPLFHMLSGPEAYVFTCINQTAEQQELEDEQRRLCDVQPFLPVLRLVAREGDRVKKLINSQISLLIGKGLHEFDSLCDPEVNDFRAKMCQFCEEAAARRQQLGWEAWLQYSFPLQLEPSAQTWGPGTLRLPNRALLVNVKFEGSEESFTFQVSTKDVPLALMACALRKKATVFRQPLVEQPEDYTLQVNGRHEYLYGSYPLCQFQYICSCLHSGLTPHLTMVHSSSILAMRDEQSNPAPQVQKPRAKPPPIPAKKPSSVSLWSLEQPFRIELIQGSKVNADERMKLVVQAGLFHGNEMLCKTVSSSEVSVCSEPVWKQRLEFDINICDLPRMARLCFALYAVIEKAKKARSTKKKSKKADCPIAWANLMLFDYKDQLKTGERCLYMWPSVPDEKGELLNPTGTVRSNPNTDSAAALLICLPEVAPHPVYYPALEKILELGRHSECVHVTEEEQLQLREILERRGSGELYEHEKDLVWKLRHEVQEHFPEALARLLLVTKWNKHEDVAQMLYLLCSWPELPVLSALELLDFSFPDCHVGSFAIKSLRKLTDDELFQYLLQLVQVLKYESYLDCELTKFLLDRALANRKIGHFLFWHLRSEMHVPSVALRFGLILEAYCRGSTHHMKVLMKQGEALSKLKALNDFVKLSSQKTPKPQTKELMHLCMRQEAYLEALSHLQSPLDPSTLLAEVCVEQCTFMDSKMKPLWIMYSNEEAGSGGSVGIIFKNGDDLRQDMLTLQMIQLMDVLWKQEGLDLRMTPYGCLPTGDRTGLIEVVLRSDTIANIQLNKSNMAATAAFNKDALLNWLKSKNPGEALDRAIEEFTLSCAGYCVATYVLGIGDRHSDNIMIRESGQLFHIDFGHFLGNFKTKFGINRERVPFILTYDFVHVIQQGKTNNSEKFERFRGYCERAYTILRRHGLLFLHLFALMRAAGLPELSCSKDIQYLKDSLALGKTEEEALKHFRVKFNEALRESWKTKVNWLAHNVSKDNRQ
Chain of PI3K δ (P27986 whole entry partner, species assumed): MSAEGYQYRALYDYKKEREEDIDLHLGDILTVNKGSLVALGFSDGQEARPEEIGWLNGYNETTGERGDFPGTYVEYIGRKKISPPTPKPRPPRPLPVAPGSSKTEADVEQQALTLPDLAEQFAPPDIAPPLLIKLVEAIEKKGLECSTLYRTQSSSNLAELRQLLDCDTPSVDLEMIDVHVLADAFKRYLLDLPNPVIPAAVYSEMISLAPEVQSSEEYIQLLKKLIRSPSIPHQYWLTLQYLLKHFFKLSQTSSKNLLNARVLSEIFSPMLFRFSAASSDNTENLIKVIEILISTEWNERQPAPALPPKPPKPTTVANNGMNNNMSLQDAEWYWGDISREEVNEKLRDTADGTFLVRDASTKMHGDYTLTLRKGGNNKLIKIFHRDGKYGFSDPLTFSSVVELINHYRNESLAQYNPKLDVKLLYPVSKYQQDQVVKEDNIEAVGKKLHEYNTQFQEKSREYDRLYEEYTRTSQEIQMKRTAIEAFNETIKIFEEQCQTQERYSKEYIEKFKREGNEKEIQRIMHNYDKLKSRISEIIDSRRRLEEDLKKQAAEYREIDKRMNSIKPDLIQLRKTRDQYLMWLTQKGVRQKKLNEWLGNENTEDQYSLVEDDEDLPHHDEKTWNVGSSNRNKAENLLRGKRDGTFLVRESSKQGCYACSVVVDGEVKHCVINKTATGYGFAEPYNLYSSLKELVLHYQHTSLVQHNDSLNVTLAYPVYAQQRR

PI3K α = PI3K α (Homo sapiens, UniProt P42336); test: PI3K α kinase assay
Chain of PI3K α (P42336 whole entry, species assumed): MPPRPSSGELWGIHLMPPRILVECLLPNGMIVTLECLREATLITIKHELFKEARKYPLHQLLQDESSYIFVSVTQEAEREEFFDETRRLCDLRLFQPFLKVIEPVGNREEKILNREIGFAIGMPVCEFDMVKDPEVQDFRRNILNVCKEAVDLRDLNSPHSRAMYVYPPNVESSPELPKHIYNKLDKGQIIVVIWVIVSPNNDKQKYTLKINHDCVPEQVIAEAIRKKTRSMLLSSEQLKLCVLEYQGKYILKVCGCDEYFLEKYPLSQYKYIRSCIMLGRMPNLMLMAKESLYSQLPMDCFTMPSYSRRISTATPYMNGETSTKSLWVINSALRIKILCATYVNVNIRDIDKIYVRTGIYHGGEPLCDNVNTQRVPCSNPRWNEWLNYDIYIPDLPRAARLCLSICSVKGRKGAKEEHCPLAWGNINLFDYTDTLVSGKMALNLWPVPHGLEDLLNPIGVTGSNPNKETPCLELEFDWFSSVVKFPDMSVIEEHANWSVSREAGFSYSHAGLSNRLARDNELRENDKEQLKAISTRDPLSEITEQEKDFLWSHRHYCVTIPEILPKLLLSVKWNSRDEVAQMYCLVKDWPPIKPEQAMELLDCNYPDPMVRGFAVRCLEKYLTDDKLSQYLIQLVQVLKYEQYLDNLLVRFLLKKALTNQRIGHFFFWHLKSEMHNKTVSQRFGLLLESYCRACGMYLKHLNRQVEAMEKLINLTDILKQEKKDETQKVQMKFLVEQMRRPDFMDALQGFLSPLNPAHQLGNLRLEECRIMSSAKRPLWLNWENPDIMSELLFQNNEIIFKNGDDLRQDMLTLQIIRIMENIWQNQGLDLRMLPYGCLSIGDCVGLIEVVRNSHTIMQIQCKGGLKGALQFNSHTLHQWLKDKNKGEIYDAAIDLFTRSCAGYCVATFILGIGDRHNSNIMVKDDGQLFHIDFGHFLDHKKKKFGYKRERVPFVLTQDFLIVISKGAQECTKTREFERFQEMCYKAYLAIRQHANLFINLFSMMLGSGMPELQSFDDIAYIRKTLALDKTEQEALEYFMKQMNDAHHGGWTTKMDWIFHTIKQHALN
Chain of PI3K α (P27986 whole entry partner, species assumed): as the sequence (P27986 whole entry partner, species assumed) above

PI3K γ = PI3K γ (Homo sapiens, UniProt P48736); test: PI3K γ kinase assay
Chain of PI3K γ (P48736 whole entry, species assumed): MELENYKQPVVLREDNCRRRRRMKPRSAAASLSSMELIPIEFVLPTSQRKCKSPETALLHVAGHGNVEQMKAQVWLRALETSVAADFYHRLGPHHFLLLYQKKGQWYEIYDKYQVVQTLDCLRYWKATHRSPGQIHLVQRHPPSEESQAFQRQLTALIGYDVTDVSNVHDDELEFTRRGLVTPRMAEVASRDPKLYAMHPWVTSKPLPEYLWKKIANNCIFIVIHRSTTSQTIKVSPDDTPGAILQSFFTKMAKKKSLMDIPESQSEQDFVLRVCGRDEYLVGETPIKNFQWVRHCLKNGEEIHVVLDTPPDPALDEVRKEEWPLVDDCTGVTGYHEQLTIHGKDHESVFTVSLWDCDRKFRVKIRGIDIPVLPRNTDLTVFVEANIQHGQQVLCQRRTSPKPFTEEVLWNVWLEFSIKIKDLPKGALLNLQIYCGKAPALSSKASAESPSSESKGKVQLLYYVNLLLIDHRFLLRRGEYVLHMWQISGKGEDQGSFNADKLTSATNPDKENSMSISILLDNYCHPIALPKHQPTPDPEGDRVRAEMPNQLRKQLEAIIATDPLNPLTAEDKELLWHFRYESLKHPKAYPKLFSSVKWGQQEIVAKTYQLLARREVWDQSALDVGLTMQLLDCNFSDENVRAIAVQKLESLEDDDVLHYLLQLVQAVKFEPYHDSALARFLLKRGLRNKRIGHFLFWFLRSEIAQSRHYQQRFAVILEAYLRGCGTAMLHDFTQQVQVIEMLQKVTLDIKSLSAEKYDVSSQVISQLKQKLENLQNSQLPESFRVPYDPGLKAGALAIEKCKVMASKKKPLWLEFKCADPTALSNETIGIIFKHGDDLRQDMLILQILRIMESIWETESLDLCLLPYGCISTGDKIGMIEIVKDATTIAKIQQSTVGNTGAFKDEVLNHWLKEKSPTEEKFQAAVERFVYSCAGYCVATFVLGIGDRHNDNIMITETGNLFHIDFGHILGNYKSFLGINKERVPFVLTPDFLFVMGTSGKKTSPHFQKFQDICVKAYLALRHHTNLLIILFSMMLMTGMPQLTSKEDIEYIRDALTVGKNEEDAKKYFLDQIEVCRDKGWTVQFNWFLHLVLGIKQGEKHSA

PI3K β = PI3K β (Homo sapiens, UniProt P42338); test: PI3K β kinase assay
Chain of PI3K β (P42338 whole entry, species assumed): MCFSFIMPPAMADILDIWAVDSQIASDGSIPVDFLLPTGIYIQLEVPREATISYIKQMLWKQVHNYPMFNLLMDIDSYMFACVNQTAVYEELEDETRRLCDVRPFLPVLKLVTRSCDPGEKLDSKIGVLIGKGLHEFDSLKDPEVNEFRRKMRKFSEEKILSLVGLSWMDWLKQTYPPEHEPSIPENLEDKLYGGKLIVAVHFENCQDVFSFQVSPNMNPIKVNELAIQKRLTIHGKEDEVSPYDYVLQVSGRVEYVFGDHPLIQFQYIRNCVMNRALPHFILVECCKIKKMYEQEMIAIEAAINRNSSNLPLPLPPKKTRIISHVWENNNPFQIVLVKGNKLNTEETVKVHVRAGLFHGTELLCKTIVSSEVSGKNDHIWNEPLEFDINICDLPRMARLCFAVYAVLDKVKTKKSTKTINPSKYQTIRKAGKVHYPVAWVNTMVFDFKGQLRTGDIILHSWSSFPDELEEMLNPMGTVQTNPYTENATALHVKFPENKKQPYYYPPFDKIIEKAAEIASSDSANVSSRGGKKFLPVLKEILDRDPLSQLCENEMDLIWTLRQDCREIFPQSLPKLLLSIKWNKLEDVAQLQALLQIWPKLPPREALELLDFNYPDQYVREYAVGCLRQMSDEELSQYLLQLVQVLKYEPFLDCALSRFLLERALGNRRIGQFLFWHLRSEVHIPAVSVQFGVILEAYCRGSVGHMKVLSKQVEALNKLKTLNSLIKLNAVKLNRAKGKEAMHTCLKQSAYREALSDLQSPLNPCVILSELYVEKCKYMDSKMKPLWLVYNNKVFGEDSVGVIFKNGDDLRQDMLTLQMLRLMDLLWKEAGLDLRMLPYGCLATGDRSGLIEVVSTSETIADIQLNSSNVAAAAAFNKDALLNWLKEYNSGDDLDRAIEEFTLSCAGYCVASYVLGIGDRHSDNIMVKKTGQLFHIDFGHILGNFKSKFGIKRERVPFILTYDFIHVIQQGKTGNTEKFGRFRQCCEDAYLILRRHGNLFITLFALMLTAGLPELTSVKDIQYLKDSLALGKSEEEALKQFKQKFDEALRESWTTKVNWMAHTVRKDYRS
Chain of PI3K β (P27986 whole entry partner, species assumed): as the sequence (P27986 whole entry partner, species assumed) above

| Structure (SMILES) | pIC50 (mTOR; Table 2, read-out: mTORC IC50) | pIC50 (PI3K α; Table 2) | pIC50 (PI3K γ; Table 2) | further results |
| --- | --- | --- | --- | --- |
| CC(C)n1nc(-c2cc3cc(F)ccc3[nH]2)c2c(NC(=O)N(C)C)ncnc21 [Compound 2] | < 6.30 | – | – | – |
| CNc1noc2cc(-c3nn(C(C)C)c4ncnc(N)c34)ccc12 [Compound 13] | – | – | – | pIC50 (PI3K δ; Table 1): > 6.00; pIC50 (PI3K α; Table 1): > 5.00; pIC50 (mTOR; Table 1, read-out: mTOR IC50): > 5.00; pIC50 (PI3K γ; Table 1): > 6.00 |
| Nc1ncnc2c1c(-c1cc3cc(O)ccc3[nH]1)nn2C1CC(O)C1 (stereo not drawn) [Compound 54] | 7.60 to 8.00 | < 6.30 | < 6.30 | pIC50 (PI3K β; Table 2): < 6.30 |
| CC(C)n1nc(-c2cc3cc(O)c(Cl)cc3[nH]2)c2c(N)ncnc21 [Compound 32] | 6.30 to 7.00 | < 6.30 | < 6.30 | pIC50 (PI3K δ; Table 2): < 6.30 |
| CC(C)n1nc(-c2cc3ccccc3[nH]2)c2c(N)ncnc21 [Compound 7] | 7.00 to 7.30 | < 6.30 | – | – |
| CC(=O)Nc1nc2ccc(-c3nn(C(C)C)c4ncnc(N)c34)cc2o1 [Compound 3] | – | – | – | pIC50 (PI3K α; Table 1): < 5.00 |
| CC(C)n1nc(-c2cc3c(Cl)cccc3[nH]2)c2c(N)ncnc21 [Compound 9] | 7.30 to 7.60 | < 6.30 | – | – |
| COc1ccc2cc(-c3nn(C4CCOCC4)c4ncnc(N)c34)[nH]c2c1 [Compound 59] | < 6.30 | < 6.30 | < 6.30 | pIC50 (PI3K β; Table 2): < 6.30 |
| COc1cc(Cl)c2[nH]c(-c3nn(C(C)C)c4ncnc(N)c34)cc2c1 [Compound 13] | < 6.30 | < 6.30 | – | – |
| CC(C)n1nc(-c2ccc3onc(NC4CC4)c3c2)c2c(N)ncnc21 [Compound 16] | – | – | – | pIC50 (PI3K δ; Table 1): < 5.00; pIC50 (PI3K α; Table 1): < 5.00; pIC50 (mTOR; Table 1, read-out: mTOR IC50): < 5.00 |
| Nc1ncnc2c1c(-c1cc3ccc(O)cc3[nH]1)nn2C1CCOCC1 [Compound 60] | 7.00 to 7.30 | < 6.30 | 7.00 to 7.30 | pIC50 (PI3K β; Table 2): < 6.30 |
| COc1cc(F)c2[nH]c(-c3nn(C(C)C)c4ncnc(N)c34)cc2c1 [Compound 14] | < 6.30 | < 6.30 | – | – |
| COc1cccc2cc(-c3nn(C(C)C)c4ncnc(N)c34)[nH]c12 [Compound 10] | 7.60 to 8.00 | – | – | – |
| Nc1ncnc2c1c(-c1cc3cc(O)ccc3[nH]1)nn2C1CCC(N2CCOCC2)CC1 (stereo not drawn) [Compound 57] | 7.60 to 8.00 | < 6.30 | < 6.30 | pIC50 (PI3K β; Table 2): < 6.30 |
| COc1cc2cc(-c3nn(C(C)C)c4ncnc(N)c34)[nH]c2cc1Cl [Compound 29] | < 6.30 | – | – | – |
| COc1ccc2cc(-c3nn(C(C)C)c4ncnc(N)c34)[nH]c2c1 [Compound 8] | < 6.30 | < 6.30 | – | – |
| Nc1ncnc2c1c(-c1cc3cc(O)ccc3[nH]1)nn2C1CC(=O)C1 [Compound 53] | 7.00 to 7.30 | < 6.30 | < 6.30 | pIC50 (PI3K β; Table 2): < 6.30 |
| CC(C)n1nc(-c2cc3cc(Cl)ccc3[nH]2)c2c(N)ncnc21 [Compound 17] | < 6.30 | < 6.30 | – | – |
| CCOC(=O)Cn1nc(-c2cc3cc(O)ccc3[nH]2)c2c(N)ncnc21 [Compound 28] | 6.30 to 7.00 | < 6.30 | – | pIC50 (PI3K β; Table 2): < 6.30; pIC50 (PI3K δ; Table 2): < 6.30 |
| COc1cnc2[nH]c(-c3nn(C(C)C)c4ncnc(N)c34)cc2c1 [Compound 19] | < 6.30 | < 6.30 | – | – |
| Nc1ncnc2c1c(-c1cc3cc(O)ccc3[nH]1)nn2Cc1cccnc1 [Compound 38] | 6.30 to 7.00 | < 6.30 | < 6.30 | pIC50 (PI3K δ; Table 2): < 6.30 |
| CC(C)n1nc(-c2cc3cc(C#N)ccc3[nH]2)c2c(N)ncnc21 [Compound 4] | < 6.30 | < 6.30 | – | – |
| COC(=O)Nc1noc2ccc(-c3nn(C(C)C)c4ncnc(N)c34)cc12 [Compound 19] | – | – | – | pIC50 (PI3K β; Table 1): < 5.00; pIC50 (PI3K δ; Table 1): < 5.00; pIC50 (PI3K α; Table 1): < 5.00; pIC50 (mTOR; Table 1, read-out: mTOR IC50): > 5.00 |
| COCCn1nc(-c2cc3cc(O)ccc3[nH]2)c2c(N)ncnc21 [Compound 40] | 7.00 to 7.30 | < 6.30 | < 6.30 | pIC50 (PI3K δ; Table 2): < 6.30 |

| Structure (SMILES) | pIC50 (mTOR; Table 2, read-out: mTORC IC50) | pIC50 (PI3K α; Table 2) | pIC50 (PI3K γ; Table 2) | further results |
| --- | --- | --- | --- | --- |
| CNC(=O)CCn1nc(-c2cc3cc(O)ccc3[nH]2)c2c(N)ncnc21 [Compound 43] | < 6.30 | < 6.30 | – | pIC50 (PI3K β; Table 2): < 6.30; pIC50 (PI3K δ; Table 2): < 6.30 |
| COc1ccc2[nH]c(-c3nn(C(C)C)c4ncnc(N)c34)cc2n1 [Compound 18] | < 6.30 | – | – | – |
| CC(=O)N1CCC(n2nc(-c3cc4cc(O)ccc4[nH]3)c3c(N)ncnc32)CC1 [Compound 30] | 7.60 to 8.00 | < 6.30 | – | pIC50 (PI3K β; Table 2): < 6.30; pIC50 (PI3K δ; Table 2): < 6.30 |
| CC(C)n1nc(-c2cc3c(Cl)ccc(O)c3[nH]2)c2c(N)ncnc21 [Compound 39] | 8.00 to 8.30 | < 6.30 | < 6.30 | pIC50 (PI3K δ; Table 2): < 6.30 |
| Cc1nccn1CCn1nc(-c2cc3cc(O)ccc3[nH]2)c2c(N)ncnc21 [Compound 44] | 7.00 to 7.30 | < 6.30 | – | pIC50 (PI3K β; Table 2): < 6.30; pIC50 (PI3K δ; Table 2): < 6.30 |
| Nc1nc2cc(-c3nn(C4CC(O)C4)c4ncnc(N)c34)ccc2o1 (stereo not drawn) [Compound 26] | – | – | – | pIC50 (PI3K α; Table 1): > 7.00; pIC50 (PI3K γ; Table 1): > 7.00 |
| CC(C)n1nc(-c2cc3c(O)cccc3[nH]2)c2c(N)ncnc21 [Compound 37] | < 6.30 | 6.30 to 7.00 | 6.30 to 7.00 | pIC50 (PI3K δ; Table 2): 6.30 to 7.00 |
| COc1ccc2[nH]c(-c3nn(C(C)C)c4ncnc(N)c34)cc2c1 [Compound 5] | < 6.30 | < 6.30 | – | – |
| CN1CCN(C2CCC(n3nc(-c4cc5cc(O)ccc5[nH]4)c4c(N)ncnc43)CC2)CC1 (stereo not drawn) [Compound 58] | < 6.30 | < 6.30 | < 6.30 | pIC50 (PI3K β; Table 2): < 6.30 |
| CC(C)n1nc(-c2cc3cc(F)ccc3[nH]2)c2c(N)ncnc21 [Compound 3] | 6.30 to 7.00 | < 6.30 | – | – |
| Nc1ncnc2c1c(-c1cc3cc(O)ccc3[nH]1)nn2C1CCN(C(=O)C2CC2)CC1 [Compound 31] | 7.60 to 8.00 | < 6.30 | – | pIC50 (PI3K β; Table 2): < 6.30; pIC50 (PI3K δ; Table 2): 6.30 to 7.00 |
| Nc1ncnc2c1c(-c1cc3cc(O)ccc3[nH]1)nn2C1CCOCC1 [Compound 42] | > 8.30 | < 6.30 | – | pIC50 (PI3K β; Table 2): < 6.30; pIC50 (PI3K δ; Table 2): 7.00 to 7.30 |
| CNC(=O)Cn1nc(-c2cc3cc(O)ccc3[nH]2)c2c(N)ncnc21 [Compound 35] | < 6.30 | < 6.30 | < 6.30 | pIC50 (PI3K δ; Table 2): < 6.30 |
| CC(C)n1nc(-c2ccc3c(NC4CC4)noc3c2)c2c(N)ncnc21 [Compound 14] | – | – | – | pIC50 (PI3K δ; Table 1): > 5.00; pIC50 (PI3K α; Table 1): > 5.00; pIC50 (mTOR; Table 1, read-out: mTOR IC50): > 5.00 |
| Nc1ncnc2c1c(-c1cc3cc(O)ccc3[nH]1)nn2CCN1CCOCC1 [Compound 33] | 6.30 to 7.00 | < 6.30 | < 6.30 | pIC50 (PI3K δ; Table 2): < 6.30 |
| CC(C)n1nc(-c2cc3cnccc3[nH]2)c2c(N)ncnc21 [Compound 20] | < 6.30 | < 6.30 | – | – |
| CC(C)N1CCC(n2nc(-c3cc4cc(O)ccc4[nH]3)c3c(N)ncnc32)CC1 [Compound 55] | 6.30 to 7.00 | < 6.30 | < 6.30 | pIC50 (PI3K β; Table 2): < 6.30 |
| CC(C)n1nc(-c2cc3cc(C(N)=O)ccc3[nH]2)c2c(N)ncnc21 [Compound 23] | < 6.30 | < 6.30 | – | – |
| COC(=O)Nc1noc2cc(-c3nn(C(C)C)c4ncnc(N)c34)ccc12 [Compound 20] | – | – | – | pIC50 (PI3K β; Table 1): < 5.00; pIC50 (PI3K δ; Table 1): > 5.00; pIC50 (PI3K α; Table 1): > 5.00; pIC50 (mTOR; Table 1, read-out: mTOR IC50): > 5.00 |
| CC(C)n1nc(-c2cc3ccccc3n2C)c2c(N)ncnc21 [Compound 6] | < 6.30 | < 6.30 | – | – |
| CC(C)n1nc(-c2cc3cc(O)ccc3[nH]2)c2c(N)nccc21 [Compound 45] | < 6.30 | – | – | – |
| Nc1ncnc2c1c(-c1cc3cc(O)ccc3[nH]1)nn2CC(=O)N1CCOCC1 [Compound 34] | < 6.30 | < 6.30 | < 6.30 | pIC50 (PI3K δ; Table 2): < 6.30 |
| Nc1noc2ccc(-c3nn(CC(=O)N4CCOCC4)c4ncnc(N)c34)cc12 [Compound 17] | – | – | – | pIC50 (PI3K δ; Table 1): < 5.00; pIC50 (PI3K α; Table 1): < 5.00; pIC50 (mTOR; Table 1, read-out: mTOR IC50): < 5.00; pIC50 (PI3K γ; Table 1): < 5.00 |
| CC(C)N1CCC(n2nc(-c3cc4cc(O)cc(Cl)c4[nH]3)c3c(N)ncnc32)CC1 [Compound 56] | < 6.30 | < 6.30 | < 6.30 | pIC50 (PI3K β; Table 2): < 6.30 |
